Here are results for five compounds from ChEMBL document CHEMBL3272016, “Potential inhibitors of collagen biosynthesis. 5,5-Difluoro-DL-lysine and 5,5-dimethyl-DL-lysine and their activation by lysyl-tRNA ligase” (J Med Chem, 1977).

Molecules are shown by their SMILES. Calls of active or inactive are those of the source. The rule behind the calls is not given here.

Data set [1] is described as follows: Dissociation constant, pKa of the compound. Format: physicochemical.
Data set [2] has as its system Escherichia coli B.
Description: Activity of Escherichia coli B lysyl-tRNA ligase after 15 mins by Lineweaver-Burk plot analysis
The subject of data set [3] is P388. Nature of the data set: Cytotoxicity against mouse P388 cells assessed as growth inhibition at 0.55 mM after 72 hrs by hemocytometry. Format: functional, cell-based.
The nature of data set [4]: Competitive inhibition of Escherichia coli B lysyl-tRNA ligase using lysine as substrate after 15 mins by double reciprocal plot analysis. The note with it: read-out: Ki(app).
Data set [5] has as its system P388. Nature of the data set: Cytotoxicity against mouse P388 cells assessed as growth inhibition at 0.5 mM after 72 hrs by hemocytometry. Type of data set: functional. As to conditions: P388, 72 h, read-out: GI.
The species named for data set [6] is Mus musculus. Put plainly: Inhibition of peptidyl lysine hydroxylase in mouse L929 fibroblasts assessed as release of [3H] as [3H]OH from [4,5-3H]lysylprotocollagen measured per mg of protein at 2 mM (reference value: 1228 cpm).
Data set [7] concerns L929. Nature of the data set: Inhibition of collagen biosynthesis in mouse L929 fibroblasts assessed as [3H]lysine/[14C]proline incorporation into protein at 5 mM. Type of data set: functional, cell-based.
The species entered for data set [8] is Mus musculus. Nature of the data set: Inhibition of peptidyl lysine hydroxylase in mouse L929 fibroblasts assessed as release of [3H] as [3H]OH from [4,5-3H]lysylprotocollagen measured per mg of protein at 0.01 mM (reference value: 1228 cpm).
Data set [9] is filed under the species Mus musculus. Nature of the data set: Inhibition of peptidyl lysine hydroxylase in mouse L929 fibroblasts assessed as release of [3H] as [3H]OH from [4,5-3H]lysylprotocollagen measured per mg of protein at 0.05 mM (reference value: 1228 cpm).
For data set [10], the species on record is Mus musculus. Nature of the data set: Inhibition of peptidyl lysine hydroxylase in mouse L929 fibroblasts assessed as release of [3H] as [3H]OH from [4,5-3H]lysylprotocollagen measured per mg of protein at 0.10 mM (reference value: 1228 cpm).
For data set [11], the species on record is Mus musculus. Put plainly: Inhibition of peptidyl lysine hydroxylase in mouse L929 fibroblasts assessed as release of [3H] as [3H]OH from [4,5-3H]lysylprotocollagen measured per mg of protein at 1 mM (reference value: 1228 cpm).
The species named for data set [12] is Mus musculus. Put plainly: Inhibition of peptidyl lysine hydroxylase in mouse L929 fibroblasts assessed as release of [3H] as [3H]OH from [4,5-3H]lysylprotocollagen measured per mg of protein at 0.20 mM (reference value: 1228 cpm).
Data set [13] is filed under the species Mus musculus. Put plainly: Inhibition of peptidyl lysine hydroxylase in mouse L929 fibroblasts assessed as release of [3H] as [3H]OH from [4,5-3H]lysylprotocollagen measured per mg of protein at 5 mM (reference value: 1228 cpm).
Data set [14] is filed under the species Mus musculus. Put plainly: Inhibition of peptidyl lysine hydroxylase in mouse L929 fibroblasts.
In data set [15] the test system is P388. Nature of the data set: Cytotoxicity against mouse P388 cells assessed as growth inhibition at 0.15 mM after 72 hrs by hemocytometry. Format: functional. As to conditions: P388, 72 h, read-out: GI.

The term pKa denotes the pH at which an ionisable group is half protonated. Low readings indicate a stronger acid or weaker base, high ones a weaker acid or stronger base. What is called Km is the substrate concentration at which the rate is half of its maximum. Take `NCCCC[C@H](N)C(=O)O` [LYSINE]: the pKa in data set [1] is 10.6. For the same compound, the Michaelis-Menten constant (Km) in data set [2] is 0.5 µM.
With `CC(C)(CN)CCC(N)C(=O)O` (racemic), the “growth inhibition (GI)” value in data set [3] was “inactive”. The compound also registered a pKa in data set [1] of 10.2. Moreover, the Ki in data set [4] was 16.2 mM.
With `NCCSC[C@H](N)C(=O)O`, the inhibition of growth at 500 µM in data set [5] amounted to 93%. The compound further had a pKa in data set [1] of 9.52. In [2], the Km stood at 1.4 µM.
With `NCC(F)(F)CCC(N)C(=O)O` (racemic), the Activity in [6] was found to be 1080 cpm; in data set [8], 1220 cpm; in [9] it was 1270 cpm; in [10], 1230 cpm; in data set [11] it was 1070 cpm; in data set [12], 1270 cpm. The Activity in [13] worked out at 920 cpm. In data set [7], the outcome was inactive. For the same compound, the “growth inhibition (GI)” value in data set [3] was “inactive”. The inhibition result in [14] was “inactive”. For the same compound, in data set [1], the pKa is 6.88. Moreover, the Km in data set [2] turned out to be 1310 µM.
On to `NC(=O)NO` [HYDROXYUREA], for which the inhibition of growth at 150 µM in [15] was found to be 87%.
